Data reported in article PMC10226132, “First-in-Class Selective Inhibitors of the Lysine Acetyltransferase KAT8” (Journal of Medicinal Chemistry, 2023).

Key:
Type in all cases: cell-based, human
[1] = tested on: H4K16Ac in HT29 cells; experiment: Immunofluorescence of H4K16Ac in HT29 cells; conditions: 50 μM, 24 h, compared with control
Description: For IF analysis, 1 × 10^5 HT-29 cells were grown on sterile coverslips. After 24 h, cells were exposed to different compounds for 24 h. IF staining for different acetylated lysine residues of histone H3 (H3K27Ac) and H4 (H4K16Ac) were carried out on PFA-fixed cells blocked with 20% goat serum in PBS and incubated overnight at 4 °C with primary rabbit monoclonal antibodies histone H3K27Ac (D5E4, Rabbit mAb#8173) and H4K16Ac (E2B8W, Rabbit mAb#13534, Cell Signalling Technology). Primary antibodies were detected using rabbit anti-IgG secondary antibodies conjugated with Cy3 (Jackson Immunoresearch 711-165-152). DNA was stained using 0.05 μg/mL 4′,6-diamidino-2-phenylindole (DAPI). The samples were acquired using an Olympus AX70 (Olympus America Inc.) microscope. Serial Z stacks of 0.4 μm thickness were acquired, taking care to cover the entire cell volume. For quantification of fluorescence intensity signals, images of untreated or treated cells were analyzed and processed using opensource Cell Profiler 4.1.3 image analysis software (https://cellprofiler.org/) to measure fluorescence-integrated intensity values for antibody binding relating to individual cells as previously reported.[67]

[2] = tested on: H460 cells; experiment: MTT cell proliferation assay, H460; conditions: 10, 25, 50, 100 μM, 72 h
From the text: (§1) Human commercially available AML U937, breast cancer MCF7, lung adenocarcinoma NCI-H460, H1299 and A-549, glioblastoma U251, B lymphocyte AHH1 cell lines were maintained in compete 10% foetal bovine serum (FBS,) RPMI 1640 (Euroclone, Milan, IT) medium. Human commercially available colon cancer HCT116 and HT29 lines and cervix adenocarcinoma HeLa cells were maintained in compete 10% FBS Dulbecco’s Modified Eagle Medium (DMEM) high glucose medium (Euroclone). L-Glutamine, FBS, and penicillin streptomycin mixture added to medium were obtained from Euroclone. All cell lines were cultured at 37 °C in a humidified atmosphere of 5% CO2:95% air and were tested for mycoplasma contamination routinely by RT-PCR.
(§2) For analysis of cell proliferation, cells were plated in sextuplicate on 96-well plates in complete media. After 24 h, cells were exposed to different drugs for 72 h. The inhibitory effect of different drugs was assessed by MTT (Sigma, St. Louis, MO, USA) colorimetric assays as previously reported.[67] Aqueous DMSO (0.5% v/v) was used as a control (untreated). The results are reported as “viability of drug-treated cells/viability of untreated cells” × 100 and represent the average ±SD of three independent experiments. IC50 values were using fitted by nonlinear regression using GraphPad Prism 8.0.

[3] = tested on: U937 cells; experiment: MTT cell proliferation assay, U937; conditions: for antiproliferative activity in U937: 10, 25, 50, 100 μM; for IC50: 72 h treatment, MTT
From the text: as §1, §2

[4] = tested on: AHH-1 cells; experiment: Proliferation of noncancer B lymphocyte AHH-1 cells; conditions: 72 h; for effect on proliferation of AHH-1 cells: 25, 50, 100, 200 μM; for IC50: Homo sapiens, AHH-1, NI = no inhibition at 200 µM
From the text: as §1, §2

[5] = tested on: HCT116 cells; experiment: Annexin V/PI analysis, HCT116; conditions: 72 h; for apoptotic effect in combination with chloroquine (Annexin V), HCT116: 100 μM compound + CQ 10 μM; for apoptotic cell population (Annexin V), HCT116: 50 and 100 μM, compared to control
Description: For the analysis of the progression of cells through cell cycle phases and sub-G1 peak identification, 24 h after plating, cells were treated with the different compounds. After 72 h, both floating and adherent cells were collected and fixed with cold 70% ethanol. At least 24 h after fixation, cells were incubated with 0.025 mg/mL Propidium Iodide for 15 min at room temperature and analyzed. For Annexin V analysis, 24 h after plating, cells were treated with 50 and 100 μM of the compounds. In the case of chloroquine experiments, 10 μM chloroquine (Sigma-Aldrich, A9165) was added 30 min before compounds. 72 h after treatment, both floating and adherent cells were collected and stained with an Annexin V-FITC apoptosis detection kit (ENZO #ALX-850-020-KI). Samples were incubated 15 min in the dark at rt, and 10,000 events were then analyzed.

[6] = tested on: UCP2 mRNA in HCT116 cells; experiment: qRT-PCR of UCP2 mRNA in HCT116 cells; conditions: HCT116, 100 μM, 48 h
Description: Total RNA was isolated from cells after 48 h of treatment with compounds 19 and 34 (100 μM) using TRIzol reagent (Life Technologies) following the manufacturer’s instructions. cDNA was obtained by reverse transcription using a SensiFast cDNA Synthesis kit (Meridian Bioscience). qRT-PCR was performed using a Luna Universal qPCR Master Mix (BioLabs) and detected by Quant Studio3. The fold change of gene expression data was calculated by using the ddCT method. All samples were run in sextupled, and the results were presented as mean ± SEM. Detailed sequence of the primers used in the experiments can be found in the list below. • UCP2—Forward: 5′-[…]-3′ • Reverse 5′-[…]-3′ • HOXA9 — Forward: 5′-[…]-3′ • Reverse: 5′-[…]-3′

[7] = tested on: H1299-EGFP-LC3 cells; experiment: Fluorescence microscopy of autophagosomes in EGFP-LC3 H1299 cells; conditions: increasing doses, 48 h
Description: The stable EGFP-LC3 H1299 cell line was used to detect autophagic structures by fluorescence spinning disk microscopy. Cells were grown on glass coverslips, treated with compounds for 48 h and fixed in 3.7% formaldehyde (Sigma, F1635) DNA was counterstained with 0.05 μg/mL DAPI (4,6-diamidino-2-phenylindole; Sigma-Aldrich, D9542). At least 500 cells were counted for each experimental point, and cells showing ≥15 dots were considered positive. Dots were counted using a pipeline created in a previous work on the CellProfiler software.[68] Data are presented as median with interquartile range. Samples were observed under a Nikon Eclipse Ti2 microscope with a 60× (1.4 NA) objective, equipped with a CrestOptics X-Light V3 confocal spinning disk and a back illuminated Kinetix sCMOS camera.

`CC1=NN(c2ccc(C(=O)O)cc2)C(=O)/C1=C\c1ccc[nH]1` [Compound 19, (Z)-4-(4-((1H-Pyrrol-2-yl)methylene)-3-methyl-5-oxo-4,5-dihydro-1H-pyrazol-1-yl)benzoic Acid] was tested, and the “reduction in H4K16Ac signal intensity (IF)” value [1] was 80%, the “antiproliferative activity in H460” value [2] was “inhibited H460 proliferation” and the “antiproliferative activity in U937” value ([3]; 72 h) was “dose-dependent antiproliferative effects”. For the same compound, the inhibition at 50 µM ([3]; Homo sapiens, U-937, 50 μM, 72 h) was ~70%, the inhibition at 100 µM ([3]; Homo sapiens, U-937, 100 μM, 72 h) was > 80% and the IC50 ([3]; Homo sapiens, U-937) was 30.1 ± 1.7 µM. The “effect on proliferation of AHH-1 cells” value [4] was “did not significantly affect the proliferation”, the IC50 [4] was > 200 µM and the “apoptotic effect in combination with chloroquine (Annexin V), HCT116” value [5] was “increased the apoptotic effect”. The “apoptotic cell population (Annexin V), HCT116” value [5] was “only a slight increase in apoptotic cell population”, the “UCP2 mRNA levels” value [6] was “reduce the mRNA levels of UCP2” and the “EGFP-LC3 dots per cell” value [7] was “significantly increased”.

In the case of `O=C(O)c1ccc(N2N=C(c3ccccc3)/C(=C/c3ccc[nH]3)C2=O)cc1` [Compound 34, (Z)-4-(4-((1H-Pyrrol-2-yl)methylene)-5-oxo-3-phenyl-4,5-dihydro-1H-pyrazol-1-yl)benzoic Acid], the “reduction in H4K16Ac signal intensity (IF)” value [1] is reported as “more than 50%”, the “antiproliferative activity in H460” value [2] is reported as “essentially inactive” and the “antiproliferative activity in U937” value ([3]; 72 h) is reported as “dose-dependent antiproliferative effects”. For the same compound, the IC50 ([3]; Homo sapiens, U-937) was 51.7 ± 9.5 µM, the “effect on proliferation of AHH-1 cells” value [4] was “did not significantly affect the proliferation” and the IC50 [4] was > 200 µM. The “apoptotic effect in combination with chloroquine (Annexin V), HCT116” value [5] was “increased the apoptotic effect”, the “apoptotic cell population (Annexin V), HCT116” value [5] was “only a slight increase in apoptotic cell population” and the “UCP2 mRNA levels” value [6] was “reduce the mRNA levels of UCP2”. For the same compound, the “EGFP-LC3 dots per cell” value [7] was “significantly increased”.
